Values of other authors, collected in US5968795A, “Biaryl acetylenes as inhibitors of matrix metalloproteases” (Bayer Corporation, priority 1997, dated 1999).

Columns and labels:
[1] = tested on: human colon tumor; settings: given intraperitoneally; orthotopic model in nude mice; cited from earlier work
[2] = tested on: human ovarian carcinoma xenografts; settings: given intraperitoneally; cited from earlier work

CNC(=O)[C@H](Cc1ccccc1)NC(=O)[C@H](CC(C)C)[C@H](CSc1cccs1)C(=O)NO [batimastat]
human colon tumor growth and spread [1]: inhibits human colon tumor growth and spread
survival of mice bearing human ovarian carcinoma xenografts [2]: prolongs the survival of mice
